Read-outs that look alike come from different tables or passages of the source.
Columns and labels:
neutrophils [1] = assay: Neutrophil degranulation assay (myeloperoxidase, lysozyme release); format: cell-based, human
Procedure: (§1) Neutrophil viability and purity was always greater than 90%.
One and a half milliliter Eppendorf tubes containing either 25 mg of CPPD or 1 mg of zymosan were preheated to 37° C. 0.5 ml of cells at 37° C. were added followed by vigorous shaking to initiate the reactions. At appropriate times, tubes were centrifuged at 10,000 g for 10 seconds and 0.4 ml of supernatant was stored at −20° C. for later assay.
Lysozyme was measured by the decrease in absorbance at 450 nm of a Micrococcus lysodeikticus suspension. Briefly, Micrococcus lysodeikticus was suspended at 0.1 mg/ml in 65 mM potassium phosphate buffer, pH 6.2 and the absorbance at 450 nm was adjusted to 0.7 units by dilution. The crystal (or zymosan) and cell supernatant (100 μl) was added to 2.5 ml of the Micrococcus suspension and the decrease in absorbance was monitored. Lysozyme standards (chicken egg white) in the 0 to 2000 units/ml range were prepared and a calibration graph of lysozyme concentration against the rate of decrease in the absorbance at 450 nm was obtained.
Myeloperoxidase (MPO) activity was measured by the increase in absorbance at 450 nm that accompanies the oxidation of dianisidine. 7.8 mg of dianisidine was dissolved in 100 ml of 0.1 M citrate buffer, pH 5.5 at […] by sonication. To a 1 ml cuvette, 0.89 ml of the dianisidine solution was added, followed by 50 μl of 1% Triton x 100, 10 μl of a 0.05% hydrogen peroxide in water solution and 50 μl of crystal-cell supernatant. MPO activity was determined from the change in absorbance (450 nm) per minute, Delta Å 450, using the following equation: […]

collagenase (MMP-1) mRNA = assay: IL-1 induced collagenase mRNA expression in chondrocytes (Northern blot); format: cell-based, calf
Procedure: Total RNA was isolated, and the MMP-1 mRNA levels were determined by Northern blot analysis. The blots were subsequently stripped and reprobed with ^32P-radiolabeled rat GAPDH cDNA, which was used as a housekeeping gene. The results shown are representative of four independent experiments. Quantitation of collagenase-1 and stromelysin-expression mRNA levels. The MMP-1 and MMP-3 expression levels were normalized with GAPDH.
Primary chondrocyte cultures were freshly isolated from calf cartilage. The cells were plated at 2.5×10^6 per ml in 100×20 mm culture dishes and incubated in Ham's F12 medium containing 5% FBS overnight at 37° C. […] IL-1 (20 ng/ml) was then added to each plate and the plates incubated for an additional 18 hours. Total RNA was isolated by the acidified guanidine isothiocyanate method and subjected to electrophoresis on a denatured gel. Denatured RNA samples (15 μg) were analyzed by gel electrophoresis in a 1% denatured gel, transferred to a nylon membrane and hydridized with the ^32P-labeled collagenase cDNA probe. ^32P-labeled glyceraldehyde phosphate […] (GAPDH) cDNA as an internal standard to ensure roughly equal loading. The exposed films were scanned and quantitatively analyzed with ImageQuant.

[2] = tested on: collagen-induced arthritis
Procedure: Syngeneic female Louvain rats weighing 120 to 150 grams were injected intradermally with 0.5 mg of native chick collagen II (Genzyme, Boston, Mass.) solubilized in 0.1 M acetic acid and emulsified in FIA (Difco, Detroit, Mich.). […] The control and experimental animals were evaluated for disease severity both clinically and radiographically by individuals blinded to treatment groups.
The severity of inflammation for each limb was evaluated daily and scored based on standardized levels of swelling and periarticular erythema (0 being normal and 4 severe). Animals were evaluated radiographically on day 28 of the experiment. The radiographs of both hind limbs were graded by the degree of soft tissue swelling, joint space narrowing, bone destruction, and periosteal new bone formation. A scale of 0-3 was used to quantify each limb (0=normal, 1=soft tissue swelling, 2=early erosions of bone, 3=severe bone destruction and/or ankylosis). Histological assessment of the joints was completed at the conclusion of the experiment.
Delayed-type hypersensitivity (DTH) to CII was determined by a radiometric ear assay completed on day 28. Radiometric ear indices≧1.4 represent a significant response to CII. The presence of anti-CII IgG antibodies was determined by enzyme-linked immunosorbent assay (ELISA).

[3] = tested on: AP-1 transcriptional activity; assay: IL-1 stimulated AP-1 driven CAT reporter gene in chondrocytes; format: cell-based; conditions: 10^−7 to 10^−5 M
Source text: The data noted with an asterisk (*) have significance compared with IL-1-induced CAT activity according to a t-test, P<0.05. The results shown are representative of three independent experiments.

neutrophils [4] = conditions: human, 1 h, 46 µM
Procedure: Neutrophils were prepared from freshly collected human citrated whole blood. Briefly, 400 ml of blood were mixed with 80 ml of 4% dextran T500 (Phamacia LKB, Biotechnology AB Uppsala, Sweden) in HBSS and allowed to settle for 1 hour. Plasma was collected continuously and 5 ml applied to 5 ml of Ficoll Paque (Pharmacia) in 15 ml polypropylene tubes (Corning, N.Y.). Following centrifugation at 500 g for 30 minutes, the neutrophil pellets were washed free of erythrocytes by 20 seconds of hypotonic shock. Neutrophils were resuspended in HBSS, kept on ice and used for experiments within 3 hours. Neutrophil viability and purity was always greater than 90%.
To determine the effect of the anti-microtubule agents on neutrophil viability the release of the cytoplasmic marker enzyme, lactate dehydrogenase (LDH) was measured. Control tubes containing cells with drug (crystals absent) from degranulation experiments were also assayed for LDH.

EOMA cells = assay: Endothelial cell apoptosis (DAPI staining); format: cell-based; conditions: 24 hours
Procedure: The cells were fixed with 3.7% formaldehyde in phosphate buffered saline for 20 minutes, stained with DAPI (4′-6-diaminido-2-phenylindole), 1 ug/ml, and examined with a 40×objective under epifluorescent optics. Apoptotic cells were evaluated by scoring cells for fragmented nuclei and condensed chromatin.

[5] = tested on: chick chorioallantoic membrane (CAM) vasculature; conditions: for CAM vasculature: 2-day exposure
neutrophils [6] = assay: Superoxide anion generation by neutrophils; format: cell-based, human; conditions: 28 μM
Procedure: All experiments that studied neutrophil responses to crystals or zymosan in the presence of paclitaxel were performed using plasma opsonized CPPD or zymosan. Opsonization of crystals or zymosan was done with 50% heparinized plasma at a concentration of 75 mg of CPPD or 12 mg of zymosan per ml of 50% plasma Crystals or zymosan were incubated with plasma for 30 minutes at 37° C. and then washed in excess HBSS.
as §1
Superoxide anion concentrations were measured using the superoxide dismutase inhibitable reduction of cytochrome C assay. Briefly, 25 mg of crystals or 0.5 mg of zymosan was placed in a 1.5 ml capped Eppendorf tube and warmed to 37° C. 0.5 ml of cells at 37° C. were added together with ferricytochrome C (final concentration 1.2 mg/ml) and the cells were activated by shaking the capped tubes. At appropriate times tubes were centrifuged at 10,000 g for 10 seconds and the supernatant collected for assay be measuring the absorbance of 550 nm. Control tubes were set up under the same conditions with the inclusion of superoxide dismutase at 600 units per ml.

[7] = Stability of paclitaxel in cyclodextrin solutions; format: physicochemical
Source text: The solutions containing 20% HPβCD or HPγCD had pH values of 3.9 and 5.2, respectively.

**Q.** Which lysozyme release (neutrophils [1]; 28 μM, plasma opsonized CPPD) does the source give for `CC(=O)O[C@H]1C(=O)[C@@]2(C)[C@H]([C@H](OC(=O)c3ccccc3)[C@]3(O)C[C@H](OC(=O)[C@H](O)[C@@H](NC(=O)c4ccccc4)c4ccccc4)C(C)=C1C3(C)C)[C@]1(OC(C)=O)CO[C@@H]1C[C@@H]2O` [paclitaxel] here?
**A.** reduced lysozyme release

**Q.** And the inhibition at 28 µM (neutrophils [1]; Homo sapiens, Neutrophil, 28 μM, opsonized zymosan, after 9 minutes incubation, read-out: inhibition of MPO release)?
**A.** 50%

**Q.** And the myeloperoxidase release (neutrophils [1]; plasma opsonized CPPD (FIG. 5A: 28 μM))?
**A.** significantly inhibited CPPD-induced myeloperoxidase release at all times

**Q.** What about the “concentration inhibiting collagenase expression in vitro” value (collagenase (MMP-1) mRNA) of the same compound?
**A.** 10^−6 M

**Q.** And the “collagenase mRNA levels” value (collagenase (MMP-1) mRNA; 10^−5 M, pretreatment 24 hours, IL-1)?
**A.** complete inhibition

**Q.** What about the radiographic disease ([2]; high- and low-dose suppression groups vs control) of the same compound?
**A.** significantly less radiographic disease

**Q.** And the clinical symptoms ([2]; low- and high-dose suppression protocols, i.p. from day 9)?
**A.** significant clinical improvement

**Q.** What about the “IgG antibodies to type II collagen (ELISA)” value ([2]; paclitaxel-treated rats vs control group) of the same compound?
**A.** significantly lower

**Q.** And the “radiographic changes / clinical arthritis” value ([2]; prevention protocol)?
**A.** None of the rats in the paclitaxel arthritis prevention protocol manifested any radiographic changes or clinical arthritis

**Q.** And the development of arthritis ([2]; prevention protocol: 1 mg/kg i.p. from day 2)?
**A.** completely precluded development of the disease

**Q.** And the “toxic effects of the treatment” value ([2]; rat, in vivo)?
**A.** few, if any toxic effects

**Q.** And the “IL-1 induced AP-1 reporter gene CAT activity” value [3]?
**A.** reduced in chondrocytes by paclitaxel in a concentration dependent manner

**Q.** And the LDH release (neutrophils [4])?
**A.** less than 5 % of total

**Q.** What about the “concentrations inducing endothelial cell apoptosis” value (EOMA cells) of the same compound?
**A.** greater than 10^−8 M

**Q.** What about the CAM vasculature ([5]; 5% paclitaxel-loaded PCL microspheres, 1 mg) of the same compound?
**A.** marked vascular regression and zones which were devoid of a capillary network

**Q.** What about the “diameter of avascular areas” value ([5]; 48 hour exposure to 10 μg paclitaxel per 10 ml of methylcellulose) of the same compound?
**A.** approximately 6 mm

**Q.** And the “avascular zones did not revascularize for” value ([5]; after application)?
**A.** at least 7 days

**Q.** What about the “inhibition of angiogenesis occurs as early as” value ([5]; after application) of the same compound?
**A.** 9 h

**Q.** What about the avascular gradient scale ([5]; maximal avascular zone within 48 hours depending on concentration, methylcellulose disk) of the same compound?
**A.** 3

**Q.** And the Inhibition/n ([5]; micellar solution (10 ul), 10%)?
**A.** too toxic

**Q.** And the CAM vasculature ([5]; paclitaxel-gelatin-PCL paste, 1 mg pieces)?
**A.** consistently showed vascular regression and zones which lacked a capillary network

**Q.** What about the “maximal avascular zone diameter” value ([5]; within 48 hours depending on concentration, methylcellulose disk) of the same compound?
**A.** 6 mm

**Q.** What about the “inhibition of superoxide anion production” value (neutrophils [6]; opsonized zymosan) of the same compound?
**A.** less dramatic than the inhibition of CPPD activation but was significant at all times

**Q.** And the superoxide anion production (neutrophils [6]; plasma opsonized CPPD crystals)?
**A.** decrease in the amount of superoxide generated at all times

**Q.** What about the “degradation rate constant k” value ([7]; 1 μg/ml paclitaxel, 1% HPβ-CD, 55° C.) of the same compound?
**A.** 0.00338 h⁻¹

**Q.** And the degradation rate constant ([7]; 10% HPβ-CD (FIG. 42: 20 μg/ml, 37° C., pH 3.7))?
**A.** 0.00178 h⁻¹

**Q.** What about the degradation rate constant ([7]; 10% HPγ-CD (FIG. 42: 20 μg/ml, 37° C., pH 4.9)) of the same compound?
**A.** 0.00096 h⁻¹

— patent publication US6689803B2, “Compositions and methods for treating surgical adhesions” (Angiotech Pharmaceuticals, Inc., priority 1996, dated 2004)
